Experimental findings from patent publication US12178830B2, “Compositions and methods for adoptive cell therapy for cancer” (MEMORIAL SLOAN KETTERING CANCER CENTER, priority 2017, dated 2024) are described below.

The subject of series [1] is hepatocellular carcinoma HepG2. Description: CellTitre Glo in vitro cytotoxicity, HepG2. The format is cell-based. How it is done:
This example describes the synthesis of exemplary prodrugs based on sulfamoyladenosine (AMS) (structure 1c) (FIG. 2C) for cleavage by the bacterial hydrolase enzyme CPG2. AMS is a close analog of nucleocidin and a potent cytotoxic molecule (HepG2 IC50=9 nM). […] Based on these SAR data, AMS prodrug 1a (“P-AMS”; FIG. 2C) was synthesized from 2′,3′-O-isopropylidene-5′-O-TBS-adenosine (structure 3, FIG. 2D) by 6-N-acylation with CDI-activated bis-O-t-Bu-glutamate (30%), desilylation (TBAF), sulfamoylation (H2NSO2C1, DMA), and acetonide hydrolysis (TFA, H2O, 15% over 3 steps). Two alternative N-sulfamate-linked prodrugs (not shown) attached via CO-PAB-CO and TML-CO linkers were synthesized (FIG. 2B). A more detailed discussion of the P-AMS synthesis and the synthesis of the N-sulfamate-linked prodrug attached via a TML-CO linker (“Trimethyllock-AMS”) is provided below in this example. As an alternative cytotoxic using a known anticancer therapeutic, the mustard prodrug ZD2767P (structure 2a, FIG. 2C) was also synthesized as previously reported (Springer et al., J Med Chem. 37(15):2361-70(1994) and Niculescu-Duvaz et al., Tetrahedron Lett. 46(40):6919-22 (2005)).
(§1) In vitro cytotoxicity of AMS-related structures was also assessed to determine the modifications of AMS that alter cytotoxicity. The in vitro cytotoxicity of each of these AMS-related structures was tested against both hepatocellular carcinoma HepG2 and normal human fibroblast MRC5 cell lines using a CellTitre Glo® assay (Promega, Madison, WI) The modifications and results are provided in Table 1 below.

The subject of series [2] is normal human fibroblast MRC5. Description: CellTitre Glo in vitro cytotoxicity, MRC5. The format is cell-based. The protocol: as §1
In series [3] the test system is HEK293T (kidney). Description: CellTitre Glo in vitro cytotoxicity, HEK293T. The series is classed as cell-based, human.
Series [4] concerns HL 60 (leukemia). The series can be described thus: CellTitre Glo in vitro cytotoxicity, HL 60. The format is cell-based. The protocol: (§2) The in vitro cytotoxicity of AMS (structure 1c) and its prodrug variant (structure 1a) was tested against a variety of cell lines using a CellTitre Glo® assay (Promega, Madison, WI). […] Moreover, co-treatment with the prodrug and supernatant from CPG2-transfected HEK293T cells (see Example 3) led to cytotoxicity approaching that of the free drug (50 nM), consistent with CPG2-mediated cleavage of the prodrug to release the active parent drug. […] In contrast, AMS prodrug 1a was not activated by HEK293T cells expressing CPG intracellularly, which likely attributed to poor cell-penetrance of the prodrug due to the free bis-anionic gluatamate moiety.

Series [5] deals with Jurkat (T cell). Description: CellTitre Glo in vitro cytotoxicity, Jurkat. The format is cell-based, human.
Series [6] deals with primary T-cells. The series can be described thus: CellTitre Glo in vitro cytotoxicity, primary T cells. The series is classed as cell-based, human.
The subject of series [7] is non-small cell lung carcinoma cell line PC9. Description: CellTitre-Glo viability, PC9. The note with it: PC9, 48 hours. The format is cell-based, human. How it is done: FIG. 14 provides exemplary data showing that Human T cells, but not cancer cells, are resistant to Erlotinib. (A) Human Jurkat T cells (red circle) and human non-small cell lung carcinoma cell lines PC9 (black square) and HCC827 (blue triangle) were treated with increasing concentrations of the receptor tyrosine kinase inhibitor Erlotinib. […] Cell viability was measured at 48 hours by CellTitre-Glo® luminescence.
FIG. 14 provides exemplary data showing that Human T cells, but not cancer cells, are resistant to Erlotinib. Human Jurkat T cells, primary T cells and human non-small cell lung carcinoma cell lines PC9 and HCC827 were treated with increasing concentrations of the receptor tyrosine kinase inhibitor Erlotinib. […] PC9 cells were incubated in the presence of Erlotinib, P-Erlotinib, or P-Erlotinib in the presence of purified CPG2. Cell viability was measured at 48 hours by CellTitre-Glo® luminescence.

In series [8] the test system is non-small cell lung carcinoma cell line HCC827. Description: CellTitre-Glo viability, HCC827. The series is classed as cell-based, human. The note with it: HCC827, 48 hours.
Protocol: Human Jurkat T cells, primary T cells and human non-small cell lung carcinoma cell lines PC9 and HCC827 were treated with increasing concentrations of the receptor tyrosine kinase inhibitor Erlotinib. […] Cell viability was measured at 48 hours by CellTitre-Glo® luminescence.
Series [9] in a line: Cell permeability in CACO-2 cells. The format is in vitro ADME, human. The note with it: human. A general note: Caco-2 monolayers are a common model of the intestinal barrier.
Series [10] concerns Jurkat T cells. Description: Jurkat viability with prodrug plus supernatant from CPG2-secreting HEK293T cells. The series is classed as cell-based, human. How it is done: as §2
Jurkat T cells were exposed to increasing concentrations of AMS (circle) or Pro-AMS with media alone (triangle) or supernatant from CPG2-secreting HEK293T cells (square). Cell viability was measured at 48 hours by CellTitre-Glo® luminescence assay.
Jurkat T cells were exposed to increasing concentrations of ZD2767P with media alone (triangle) or supernatant from CPG2-secreting HEK293T cells (square). Cell viability was measured at 48 hours by CellTitre-Glo® luminescence assay.

Series [11] relates to myeloid leukemia cell line SET2. The series can be described thus: CellTitre Glo in vitro cytotoxicity, SET2. The series is classed as cell-based. Particulars: Set2; prodrug vs AMS.
Series [12] deals with SET2 cells. Description: SET2 viability with prodrug plus recombinant enzyme or enzyme-containing supernatant. The format is cell-based. The note with it: Beta-lactamase supernatant; control media did not. The protocol: Recombinant CPG2 protein was initially synthesized, purified (FIGS. 18A and 18B), and incubated with increasing concentrations of prodrug in a glutamate release assay (FIG. 17C). Mass spectrometry was used to determine that the glutamate moiety was released from all of the glutamate prodrugs. The in vitro cytotoxicity of the prodrugs (FIG. 17B) were tested against the myeloid leukemia cell line SET2 using a CellTitre Glo® assay (Promega, Madison, WI).
SET2 cells were exposed to increasing concentrations of AMS (square) or glut-AMS with media alone (− control, triangle) or supernatant from CPG2-secreting HEK293t cells (circle). Cell viability was measured by CellTitre-Glo® luminescence assay.
Thus, antigen-dependent expansion of SEAKER T cells results in increased output of enzyme into the extracellular milieu.
To determine to respective enzyme output of the Beta-lactamase constructs relative to the previous CPG2 constructs, a quantitative sandwich ELISA was used to determine the concentration (ng/mL) of purified recombinant CPG2, and a quantitative nitrocefin assay was used to determine the concentration (ng/mL) of purified recombinant Beta-lactamase (FIG. 25A). Cell viability was measured by CellTitre-Glo® luminescence in the presence of prodrug (glut-AMS or ceph-AMS) and varying concentrations of purified recombinant CPG2 or Beta-lactamase (FIG. 25B).

Setting [13] is: Caco-2, with Ver (so in the source), concentration not stated, + Ver.

Several values for one entry are separate records, joined by “and”; a condition that tells them apart may be missing. Equal entries are not always repeated. Where two headings read alike, the source gives them in different places.

The term IC50 denotes the midpoint of a concentration-inhibition curve. Consider `Nc1nc(N)c2ncn([C@@H]3O[C@H](COS(N)(=O)=O)[C@@H](O)[C@H]3O)c2n1` [2-NH2-AMS], for which the IC50 is < 1 µM and 1.75 µM in series [1] (read-out: IC50, HepG2); < 1 µM and 1.17 µM in [2].

Take `Nc1nc(Nc2ccccc2)nc2c1ncn2[C@@H]1O[C@H](COS(N)(=O)=O)[C@@H](O)[C@H]1O` [2-NHPh-AMS]: the 50% inhibitory concentration (IC50) in [1] (read-out: IC50, HepG2) was over 500 µM; in series [2], 124 µM.

Regarding `Nc1nc(-c2ccccc2)nc2c1ncn2[C@@H]1O[C@H](COS(N)(=O)=O)[C@@H](O)[C@H]1O` [2-phenyl-AMS], the IC50 was about 500 µM in series [1] (read-out: IC50, HepG2) and over 500 µM in series [2].

As for `Nc1ncnc2c1ncn2[C@H]1C[C@H](O)[C@@H](COS(N)(=O)=O)O1` [2′-deoxy-AMS], in series [1] (read-out: IC50, HepG2), the IC50 is < 1 µM and 0.55 µM.

As to `NS(=O)(=O)OC[C@H]1O[C@@H](n2cnc3c(NC4CC4)ncnc32)[C@H](O)[C@@H]1O` [6-NCyp-AMS], the IC50 turned out to be 10.9 µM in [1] (read-out: IC50, HepG2) and 7.2 µM in series [2].

For the molecule `CNc1ncnc2c1ncn2[C@@H]1O[C@H](COS(N)(=O)=O)[C@@H](O)[C@H]1O` [6-NHMe-AMS], the IC50 in [1] (read-out: IC50, HepG2) stood at 1.8 µM; in [2], 0.9 µM.

Turning to `CN(C)c1ncnc2c1ncn2[C@@H]1O[C@H](COS(N)(=O)=O)[C@@H](O)[C@H]1O` [6-NMe2-AMS], the 50% inhibitory concentration (IC50) in [1] (read-out: IC50, HepG2) was over 500 µM; in series [2], over 500 µM.

For `COc1ncnc2c1ncn2[C@@H]1O[C@H](COS(N)(=O)=O)[C@@H](O)[C@H]1O` [6-OMe-AMS], the IC50 in series [1] (read-out: IC50, HepG2) was found to be 141 µM; in series [2], 129 µM.

In the case of `Nc1ncnc2c1nc(Cl)n2[C@@H]1O[C@H](COS(N)(=O)=O)[C@@H](O)[C@H]1O` [8-Cl-AMS], in [2], the IC50 is 3.2 µM and 3.51 µM.

With `CCCc1nc2c(N)ncnc2n1[C@@H]1O[C@H](COS(N)(=O)=O)[C@@H](O)[C@H]1O` [8-propyl-AMS], the IC50 is over 500 µM in series [1] (read-out: IC50, HepG2) and over 500 µM in series [2].

For the molecule `Nc1ncnc2c1ncn2[C@@H]1O[C@H](CNS(N)(=O)=O)[C@@H](O)[C@H]1O` [AMSN], the IC50 in [1] (read-out: IC50, HepG2) was determined as 0.36 µM; in [2], 0.39 µM.

On to `Nc1ncnc2c1ncn2[C@@H]1O[C@H](COS(N)(=O)=O)[C@@H](O)[C@H]1O` [AMS], for which the IC50 turned out to be 0.009 µM in series [1] (read-out: HepG2 IC50); 0.03 µM in [2]; 0.666 µM in series [3] (HEK293T, read-out: IC50); 0.07 µM in series [4]; 0.018 µM in [5] (Jurkat, read-out: IC50); 0.066 µM in series [6] (primary T-cells, read-out: IC50).

With `Nc1ccn([C@@H]2O[C@H](COS(N)(=O)=O)[C@@H](O)[C@H]2O)c(=O)n1` [CMS], the IC50 was over 500 µM in series [1] (read-out: IC50, HepG2) and over 500 µM in series [2].

For the molecule `C#Cc1cccc(Nc2ncnc3cc(OCCOC)c(OCCOC)cc23)c1` [Erlotinib, reference compound], the “response to increasing concentrations” value in series [5] (T cell lines (Jurkat), 48 hours) is “exhibited resistance”; in series [6] (primary T cells) it was “exhibited resistance”; in [7], “significant cell death”; in [8], “significant cell death”.

With `Nc1nc2c(ncn2[C@@H]2O[C@H](COS(N)(=O)=O)[C@@H](O)[C@H]2O)c(=O)[nH]1` [GMS], the IC50 is over 500 µM in series [1] (read-out: IC50, HepG2) and over 500 µM in series [2].

On to `NS(=O)(=O)OC[C@H]1O[C@@H](n2cnc3c(O)ncnc32)[C@H](O)[C@@H]1O` [IMS], for which the IC50 in series [1] (read-out: IC50, HepG2) is over 500 µM; in series [2] it was over 500 µM.

The term Papp A→B denotes how fast a substance crosses the layer from the apical side. A word on the Papp B→A: it is the apparent permeability from the basolateral to the apical side of a cell layer. Take `CN(C)C(=O)C(CCN1CCC(O)(c2ccc(Cl)cc2)CC1)(c1ccccc1)c1ccccc1` [Loperamide]: in [9] (setting [13]), the apical-to-basolateral permeability (Papp A→B) was found to be 10.5 ± 1.5 ×10⁻⁶ cm/s and the Papp B→A was 7.8 ± 0.5 ×10⁻⁶ cm/s. Moreover, in series [9] (Caco-2), the Papp A→B worked out at 2.2 ± 0.3 ×10⁻⁶ cm/s and the basolateral-to-apical permeability (Papp B→A) was 16.9 ± 1.1 ×10⁻⁶ cm/s.

For the molecule `Cc1cn([C@H]2C[C@H](O)[C@@H](COS(N)(=O)=O)O2)c(=O)[nH]c1=O` [TMS], the IC50 in series [1] (read-out: IC50, HepG2) was over 500 µM; in series [2], over 500 µM.

For the molecule `NS(=O)(=O)OC[C@H]1O[C@@H](n2ccc(=O)[nH]c2=O)[C@H](O)[C@@H]1O` [UMS], the IC50 was over 500 µM in [1] (read-out: IC50, HepG2) and over 500 µM in [2].

For the molecule `O=C(O)CC[C@H](NC(=O)Oc1ccc(N(CCI)CCI)cc1)C(=O)O` [ZD2767P], in series [10] (increasing prodrug, 48 hours, supernatant from CPG2-secreting HEK293T cells), the “cell viability with prodrug and CPG2 supernatant” value is “significant decrease in cell viability”. Moreover, in series [10] (with CPG2 supernatant), the IC50 is 1.7 µM.

Take `Nc1ncnc2c1ncn2[C@@H]1O[C@H](COS(=O)(=O)NCC2=C(C(=O)O)N3C(=O)[C@@H](NC(=O)Cc4cccs4)[C@H]3SC2)[C@@H](O)[C@H]1O` [ceph-AMS]: the “Selective Index” value in [3] (HEK293t, prodrug vs AMS) is on record as about 3; in [6] (Human T cell, prodrug vs AMS) it was over 6; in series [11], about 64. The “SET2 cell viability with prodrug and Beta-lactamase supernatant” value in series [12] is recorded as “significant decrease in cell viability”.
